Literature values, collected in patent publication US11654154B2, “Process for preparing injectable Fosaprepitant Dimeglumine compositions having improved storage stability” (Navinta III Inc, priority 2019, dated 2023).
“Also recorded” adds a separate entry of the source.

Legend:
[1] = for Solubility in water / aqueous solution (in words): water or aqueous solution
[2] = system: chemotherapy induced nausea and vomiting (CINV); details: added to standard regimen of ondansetron and dexamethasone; highly emetogenic cisplatin-based chemotherapy

| Structure (SMILES) | Solubility in water / aqueous solution (in words) [1] | Protection against CINV [2] | Solubility in water ([1]; water) |
| --- | --- | --- | --- |
| C[C@@H](O[C@H]1OCCN(Cc2n[nH]c(=O)[nH]2)[C@H]1c1ccc(F)cc1)c1cc(C(F)(F)F)cc(C(F)(F)F)c1 [Aprepitant] | limited solubility; also recorded: minimal solubility | consistently superior protection |  |
| C[C@@H](O[C@H]1OCCN(Cc2nc(O)n(P(=O)(O)O)n2)[C@H]1c1ccc(F)cc1)c1cc(C(F)(F)F)cc(C(F)(F)F)c1 [Fosaprepitant] | good solubility |  | about 300 mg/mL |
